Assays:
[1] = test system: RPE-Neo or RPE-MYC or RPE-MYC expressing an EGFP-Histone 2B fusion protein; experiment: Phenotypic screening assay (arrest in mitosis, change in DNA content, cell death; GE IN-Cell Analyzer 2000); assay type: cell-based; settings: Homo sapiens, compounds 20 nM to 20 μM, 24, 48 or 72 hours
[2] = test system: RPE-Neo or RPE-MYC or RPE-MYC expressing an EGFP-Histone 2B fusion protein; experiment: MTT assays of cellular proliferation; assay type: cell-based; settings: Homo sapiens, min. effective conc., read-out: Proliferative arrest (<50%)
[3] = read-out: Min. Effective conc. for Polyploidy (≥10%)
[4] = min. effective conc., read-out: Cell Death (>30%)
[5] = min. effective conc., read-out: Mitotic Arrest (≥10%)

Structure (SMILES)	minimal effective concentration [1, 3]	minimal effective concentration [1, 4]	minimal effective concentration [1, 5]	minimal effective concentration [2]
CNC(=O)C1=C(O)c2ccccc2N(Cc2ccc(C(F)(F)F)cc2)C(=O)C1 [Example 84, 5-hydroxy-N-methyl-2-oxo-1-(4-(trifluoromethyl)benzyl)-2,3-dihydro-1H-benzo[b]azepine-4-carboxamide]	30 to 1000 µM	30 to 1000 µM	10 to 30 µM	30 to 1000 µM
CNC(=O)C1=C(O)c2ccccc2N(Cc2ccc(C#N)cc2)C(=O)C1 [Example 85, 1-(4-cyanobenzyl)-5-hydroxy-N-methyl-2-oxo-2,3-dihydro-1H-benzo[b]azepine-4-carboxamide]	30 to 1000 µM	30 to 1000 µM	30 to 1000 µM	30 to 1000 µM
CCc1ccc(CN2C(=O)CC(C(=O)NC)=C(O)c3ccccc32)cc1 [Example 86, 1-(4-ethylbenzyl)-5-hydroxy-N-methyl-2-oxo-2,3-dihydro-1H-benzo[b]azepine-4-carboxamide]	1 to 10 µM	1 to 10 µM	1 to 10 µM	1 to 10 µM
CNC(=O)C1=C(O)c2ccccc2N(Cc2ccc(C(C)C)cc2)C(=O)C1 [Example 87, 5-hydroxy-1-(4-isopropylbenzyl)-N-methyl-2-oxo-2,3-dihydro-1H-benzo[b]azepine-4-carboxamide]	30 to 1000 µM	30 to 1000 µM	30 to 1000 µM	30 to 1000 µM
CCCCc1ccc(CN2C(=O)CC(C(=O)NC)=C(O)c3ccccc32)cc1 [Example 88]	30 to 1000 µM	30 to 1000 µM	30 to 1000 µM	30 to 1000 µM
CNC(=O)C1CC(=O)N(Cc2ccc(-c3ccccc3)cc2)c2ccccc2C1=O (centres unmarked) [Example 89, 1-([1,1′-biphenyl]-4-ylmethyl)-5-hydroxy-N-methyl-2-oxo-2,3-dihydro-1H-benzo[b]azepine-4-carboxamide]	30 to 1000 µM	30 to 1000 µM	30 to 1000 µM	30 to 1000 µM
CNC(=O)C1=C(O)c2ccccc2N(Cc2ccc(C(C)=O)cc2)C(=O)C1 [Example 90, 1-(4-acetylbenzyl)-5-hydroxy-N-methyl-2-oxo-2,3-dihydro-1H-benzo[b]azepine-4-carboxamide]	30 to 1000 µM	30 to 1000 µM	30 to 1000 µM	30 to 1000 µM
CNC(=O)C1=C(O)c2ccccc2N(Cc2ccc(OC)cc2)C(=O)C1 [Example 91, 5-hydroxy-1-(4-methoxybenzyl)-N-methyl-2-oxo-2,3-dihydro-1H-benzo[b]azepine-4-carboxamide]	10 to 30 µM	10 to 30 µM	1 to 10 µM	10 to 30 µM
CNC(=O)C1=C(O)c2ccccc2N(Cc2cccc(OC)c2)C(=O)C1 [Example 92, 5-hydroxy-1-(3-methoxybenzyl)-N-methyl-2-oxo-2,3-dihydro-1H-benzo[b]azepine-4-carboxamide]	10 to 30 µM	10 to 30 µM	10 to 30 µM	10 to 30 µM
CNC(=O)C1=C(O)c2ccccc2N(Cc2ccccc2OC)C(=O)C1 [Example 93, 5-hydroxy-1-(2-methoxybenzyl)-N-methyl-2-oxo-2,3-dihydro-1H-benzo[b]azepine-4-carboxamide]	10 to 30 µM	10 to 30 µM	10 to 30 µM	10 to 30 µM
CNC(=O)C1CC(=O)N(Cc2ccc(OC(F)F)cc2)c2ccccc2C1=O (centres unmarked) [Example 94, 1-(4-(difluoromethoxy)benzyl)-5-hydroxy-N-methyl-2-oxo-2,3-dihydro-1H-benzo[b]azepine-4-carboxamide]	30 to 1000 µM	30 to 1000 µM	30 to 1000 µM	30 to 1000 µM
CNC(=O)C1=C(O)c2ccccc2N(c2ccc(OC)c(F)c2)C(=O)C1 [Example 95, 1-(3-fluoro-4-methoxyphenyl)-5-hydroxy-N-methyl-2-oxo-2,3-dihydro-1H-benzo[b]azepine-4-carboxamide]	10 to 30 µM	10 to 30 µM	1 to 10 µM	10 to 30 µM
CNC(=O)C1=C(O)c2ccccc2N(CCc2ccc(OC)cc2)C(=O)C1 [Example 96, 5-hydroxy-1-(4-methoxyphenethyl)-N-methyl-2-oxo-2,3-dihydro-1H-benzo[b]azepine-4-carboxamide]	30 to 1000 µM	30 to 1000 µM	30 to 1000 µM	30 to 1000 µM
CNC(=O)C1=C(O)c2ccccc2N(Cc2cc(C)cc(C)c2)C(=O)C1 [Example 97, 1-(3,5-dimethylbenzyl)-5-hydroxy-N-methyl-2-oxo-2,3-dihydro-1H-benzo[b]azepine-4-carboxamide]	1 to 10 µM	1 to 10 µM	1 to 10 µM	1 to 10 µM
CNC(=O)C1=C(O)c2ccccc2N(Cc2cccc(C)c2C)C(=O)C1 [Example 98, 1-(2,3-dimethylbenzyl)-5-hydroxy-N-methyl-2-oxo-2,3-dihydro-1H-benzo[b]azepine-4-carboxamide]	10 to 30 µM	30 to 1000 µM	10 to 30 µM	30 to 1000 µM
CNC(=O)C1CC(=O)N(Cc2c(C)cccc2C)c2ccccc2C1=O (centres unmarked) [Example 99, 1-(2,6-dimethylbenzyl)-5-hydroxy-N-methyl-2-oxo-2,3-dihydro-1H-benzo[b]azepine-4-carboxamide]	30 to 1000 µM	30 to 1000 µM	30 to 1000 µM	30 to 1000 µM
CNC(=O)C1CC(=O)N(Cc2ccc(C)c(C)c2)c2ccccc2C1=O (centres unmarked) [Example 100, 1-(3,4-dimethylbenzyl)-5-hydroxy-N-methyl-2-oxo-2,3-dihydro-1H-benzo[b]azepine-4-carboxamide]	1 to 10 µM	1 to 10 µM	1 to 10 µM	1 to 10 µM
CNC(=O)C1CC(=O)N(Cc2ccc(C)cc2C)c2ccccc2C1=O (centres unmarked) [Example 101, 1-(2,4-dimethylbenzyl)-5-hydroxy-N-methyl-2-oxo-2,3-dihydro-1H-benzo[b]azepine-4-carboxamide]	1 to 10 µM	1 to 10 µM	1 to 10 µM	1 to 10 µM
CNC(=O)C1=C(O)c2ccccc2N(Cc2ccc(F)c(F)c2)C(=O)C1 [Example 102, 1-(3,4-difluorobenzyl)-5-hydroxy-N-methyl-2-oxo-2,3-dihydro-1H-benzo[b]azepine-4-carboxamide]	30 to 1000 µM	30 to 1000 µM	30 to 1000 µM	30 to 1000 µM
CNC(=O)C1=C(O)c2ccccc2N(Cc2cc(F)cc(F)c2)C(=O)C1 [Example 104, 1-(3,5-difluorobenzyl)-5-hydroxy-N-methyl-2-oxo-2,3-dihydro-1H-benzo[b]azepine-4-carboxamide]	30 to 1000 µM	30 to 1000 µM	30 to 1000 µM	30 to 1000 µM
CNC(=O)C1=C(O)c2ccccc2N(Cc2cc(F)c(F)c(F)c2)C(=O)C1 [Example 105, 5-hydroxy-N-methyl-2-oxo-1-(3,4,5-trifluorobenzyl)-2,3-dihydro-1H-benzo[b]azepine-4-carboxamide]	30 to 1000 µM	30 to 1000 µM	30 to 1000 µM	30 to 1000 µM
CNC(=O)C1=C(O)c2ccccc2N(Cc2cc(F)ccc2F)C(=O)C1 [Example 106, 1-(2,5-difluorobenzyl)-5-hydroxy-N-methyl-2-oxo-2,3-dihydro-1H-benzo[b]azepine-4-carboxamide]	30 to 1000 µM	30 to 1000 µM	30 to 1000 µM	30 to 1000 µM
CNC(=O)C1=C(O)c2ccccc2N(Cc2cccc(F)c2F)C(=O)C1 [Example 107, 1-(2,3-difluorobenzyl)-5-hydroxy-N-methyl-2-oxo-2,3-dihydro-1H-benzo[b]azepine-4-carboxamide]	30 to 1000 µM	30 to 1000 µM	30 to 1000 µM	30 to 1000 µM
CNC(=O)C1CC(=O)N(Cc2c(F)cccc2F)c2ccccc2C1=O (centres unmarked) [Example 108, 1-(2,6-difluorobenzyl)-5-hydroxy-N-methyl-2-oxo-2,3-dihydro-1H-benzo[b]azepine-4-carboxamide]	30 to 1000 µM	30 to 1000 µM	30 to 1000 µM	30 to 1000 µM
CNC(=O)C1=C(O)c2ccccc2N(Cc2ccc(F)c(C)c2)C(=O)C1 [Example 109, 1-(4-fluoro-3-methylbenzyl)-5-hydroxy-N-methyl-2-oxo-2,3-dihydro-1H-benzo[b]azepine-4-carboxamide]	10 to 30 µM	30 to 1000 µM	10 to 30 µM	30 to 1000 µM
CNC(=O)C1=C(O)c2ccccc2N(Cc2ccc(OC)c(F)c2)C(=O)C1 [Example 111, 1-(3-fluoro-4-methoxybenzyl)-5-hydroxy-N-methyl-2-oxo-2,3-dihydro-1H-benzo[b]azepine-4-carboxamide]	1 to 10 µM	1 to 10 µM	1 to 10 µM	1 to 10 µM

From patent US20240270695A1, “COMPOUNDS, COMPOSITIONS AND METHODS OF TREATING DISORDERS” (Chengdu Anticancer Bioscience LTD, priority 2021, published 2024)
